Source: ChEMBL document CHEMBL1142904, “Modulating effects of a novel skin-lightening agent, alpha-lipoic acid derivative, on melanin production by the formation of DOPA conjugate products” (Bioorg Med Chem, 2007)
Values belong to the molecule of their own block, whether it stands above or below them. Activity calls are given as the source filed them. No cut-off for these calls is given here.

Tests used:
[1] = biological target: T1, Tyrosinase (Agaricus bisporus) (UniProt O42713); conditions: 4 uM
T1 sequence (whole entry): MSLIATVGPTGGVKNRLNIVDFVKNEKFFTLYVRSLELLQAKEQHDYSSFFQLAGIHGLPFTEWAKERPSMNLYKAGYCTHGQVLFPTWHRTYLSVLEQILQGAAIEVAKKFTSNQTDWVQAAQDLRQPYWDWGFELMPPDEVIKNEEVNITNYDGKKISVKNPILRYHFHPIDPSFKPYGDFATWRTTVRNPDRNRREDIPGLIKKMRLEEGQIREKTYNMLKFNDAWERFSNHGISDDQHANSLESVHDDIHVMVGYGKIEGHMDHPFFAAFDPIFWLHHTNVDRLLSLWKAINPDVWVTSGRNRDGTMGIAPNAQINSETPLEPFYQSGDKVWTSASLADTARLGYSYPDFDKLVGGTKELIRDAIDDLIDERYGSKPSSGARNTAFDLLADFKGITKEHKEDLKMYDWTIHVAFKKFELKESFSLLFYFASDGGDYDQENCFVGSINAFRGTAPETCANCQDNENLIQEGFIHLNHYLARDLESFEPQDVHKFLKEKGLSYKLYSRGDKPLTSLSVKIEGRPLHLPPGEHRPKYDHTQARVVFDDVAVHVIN
Description: Inhibition of mushroom tyrosinase at 4 uM

Tyrosinase = biological target: T2, Tyrosinase (Agaricus bisporus, UniProt O42713); assay: Inhibition of mushroom tyrosinase
T2 sequence (O42713 whole entry): T1 sequence (whole entry)

[2] = biological target: T1, Tyrosinase (Agaricus bisporus); assay: Inhibition of mushroom tyrosinase catalyzed oxidation of L-DOPA assessed as DOPAchrome formation at 120 uM
B16 = assay: Inhibition of melanin synthesis in mouse B16 cells at 75 uM after 3 days; assay type: functional; conditions: B16, 72 h
[3] = substrate: O=C(CCCCC1CCS[Zn]S1)NC(Cc1c[nH]cn1)C(=O)O; conditions: Agaricus bisporus; 1.3 uM
Description: Activity of mushroom tyrosinase at 1.3 uM

[4] = substrate: N[C@@H](Cc1ccc(O)c(O)c1)C(=O)O; assay: Activity of mushroom tyrosinase; conditions: Agaricus bisporus

inhibition [1]: 82.9%
IC50 (Tyrosinase): 1300 nM
Activity [2]: Active
Molecule: O=C(CCCCC1CC[S][Zn][S]1)NC(Cc1c[nH]cn1)C(=O)O (centres undefined) [SODIUM ZINC DIHYDROLIPOYLHISTIDINATE]
inhibition at 75 µM (B16): 41.5%

Molecule: OC[C@H]1O[C@H](Oc2ccc(O)cc2)[C@H](O)[C@@H](O)[C@@H]1O
inhibition at 75 µM (B16): 38.3%

Activity [2]: Active
Molecule: O=C(O)CCCC[C@@H](S)CCS [DIHYDROLIPOIC ACID]
inhibition at 75 µM (B16): 36.3%

B1: Tyrosinase (Agaricus bisporus), O42713 (protein)
chain: T1 sequence (whole entry)
Km [3]: 4.1 µM
Km [4]: 860 µM
